Tests used:
[1] = system: L1210 RNA synthesis; assay: Incorporation of labeled precursor into RNA; type: cell-based, mouse; settings: 60 min, N=6
From the text: (§1) CYTOTOXlCITY OF POLY(PHENOLIC)SULFONATES AND THEIR SODIUM SALTS IN L1210 LYMPHOID LEUKEMIA CELLS Fei Wang, Amy E. Warren, Cheryl R. Barnes and Iris H. Hall* Division of Medicinal Chemistry and Natural Products University of North Carolina Chapel Hill, N.C. […] Because ofthese properties it was surmised that these poly(phenolic)sulfonated compounds may have antineoplastic activity. METHODS Source of Compounds Test compounds were supplied by GeneLabs, Inc. [Redwood City, CA [Table 1]. Radioisotopes were obtained from New England Nuclear [Dupont, Boston, MA]. Substrates and co-factors were purchased om Sigma Chemical Co., [St Louis, MO]. Pentosan sulfate and other antineoplastic standards were obtained from Sigma Chemical Co. Tumor lines were obtained from American Type Culture Collection [Rockville, MD]. 147 Vol. 5, No. 3, 1998 Cytotoxicity ofSodium Poly(Phenolic)Sulfonates in L1210 Lymphoid Leukemia Cells Table 1 Structures of Poly(phenolic)sulfonate Compounds O2R" n Compound R' R" n MW # G1-2041 H OH 8 1489.46 G1-2029 H OH 6 1117.09 G1-2030 H OH 4 744.73 GI-2021 CH3 ONa 8 1777.5 G1-2057 CH3 ONa 4 888.75 GI-2158 CH3 ONa 6 1333.13 GI-2063 OCH3 ONa 8 2001.65 G1-2042 OAc ONa 8 2017.73 Cytotoxicity Poly(phenolic)sulfonates were tested for cytotoxic activity by homogenizing drug in 0.05% Tween 80/H20 to give a mg/ml stock concentration. These solutions were sterilized by passing them through an acrodisc ([…]). The following cell lines were maintained by literature techniques: murine L1210 lymphoid leukemia, P-388 lymphocytic leukemia, rat UMR 106 osteosarcoma, human Tmolt3 acute lymphoblastic T cell leukemia, HUT-8 lymphoma, HeLa-S suspended cervical carcinoma, HeLa solid cervical carcinoma, KB epidermoid nasopharynx, A431 epidermoid carcinoma, colorectal adenocarcinoma SW480, HCT-8 ileocecal adenocarcinoma, lung bronchogenic MB-9812, A549 lung carcinoma, and glioma HS683. Geran et al.'s protocol was used to assess the cytotoxicity of the compounds and standards in each cell line. Cell numbers were determined by the trypan blue exclusion technique. Solid tumor cytotoxicity was determined by Leibovitz et al. 's method utilizing crystal violeeOH and read at 562 nm (Molecular Devices). Values for cytotoxicity were expressed as EDs0 g/ml, i.e. the concentration ofthe compound inhibiting 50% ofcell growth. A value of less than 4 µg/ml was required for significant activity ofgrowth inhibition. Incorporation Studies Incorporation of labeled precursors into 3H-DNA, 3H -RNA and 3H -protein for 10 L1210 cells was obtained. The concentration response for inhibition of DNA, RNA and protein synthesis of the compounds at 25, 50 and 100 l.tM was determined for 60 min incubations. Incorporation of 14C -glycine (53.0 mCi/mmol) into purines was obtained by the method of Cadman et al.[12]. Incorporation of 4C- formate (53.0 mCi/mmol) into pyrimidines was determined by the method of Christopherson et al.[13]. […] DNA polymerase Ot activity was determined in cytoplasmic extracts isolated by Eichler et aL's method. […] Messenger-, ribosomal- and transfer-RNA polymerase enzymes were isolated with different concentrations of ammonium sulfate; individual RNA polymerase activities were determined using 3H -UTP 16,17]. Ribonucleoside reductase activity was measured using 4C -CDP with dithioerythritol. […]

[2] = system: murine L1210 lymphoid leukemia; type: cell-based, mouse; settings: converted from μg/ml
From the text: (§2) CYTOTOXlCITY OF POLY(PHENOLIC)SULFONATES AND THEIR SODIUM SALTS IN L1210 LYMPHOID LEUKEMIA CELLS Fei Wang, Amy E. Warren, Cheryl R. Barnes and Iris H. Hall* Division of Medicinal Chemistry and Natural Products University of North Carolina Chapel Hill, N.C. […] Because ofthese properties it was surmised that these poly(phenolic)sulfonated compounds may have antineoplastic activity. METHODS Source of Compounds Test compounds were supplied by GeneLabs, Inc. [Redwood City, CA [Table 1]. Radioisotopes were obtained from New England Nuclear [Dupont, Boston, MA]. Substrates and co-factors were purchased om Sigma Chemical Co., [St Louis, MO]. Pentosan sulfate and other antineoplastic standards were obtained from Sigma Chemical Co. Tumor lines were obtained from American Type Culture Collection [Rockville, MD]. 147 Vol. 5, No. 3, 1998 Cytotoxicity ofSodium Poly(Phenolic)Sulfonates in L1210 Lymphoid Leukemia Cells Table 1 Structures of Poly(phenolic)sulfonate Compounds O2R" n Compound R' R" n MW # G1-2041 H OH 8 1489.46 G1-2029 H OH 6 1117.09 G1-2030 H OH 4 744.73 GI-2021 CH3 ONa 8 1777.5 G1-2057 CH3 ONa 4 888.75 GI-2158 CH3 ONa 6 1333.13 GI-2063 OCH3 ONa 8 2001.65 G1-2042 OAc ONa 8 2017.73 Cytotoxicity Poly(phenolic)sulfonates were tested for cytotoxic activity by homogenizing drug in 0.05% Tween 80/H20 to give a mg/ml stock concentration. These solutions were sterilized by passing them through an acrodisc ([…]). The following cell lines were maintained by literature techniques: murine L1210 lymphoid leukemia, P-388 lymphocytic leukemia, rat UMR 106 osteosarcoma, human Tmolt3 acute lymphoblastic T cell leukemia, HUT-8 lymphoma, HeLa-S suspended cervical carcinoma, HeLa solid cervical carcinoma, KB epidermoid nasopharynx, A431 epidermoid carcinoma, colorectal adenocarcinoma SW480, HCT-8 ileocecal adenocarcinoma, lung bronchogenic MB-9812, A549 lung carcinoma, and glioma HS683. Geran et al.'s protocol was used to assess the cytotoxicity of the compounds and standards in each cell line. Cell numbers were determined by the trypan blue exclusion technique. Solid tumor cytotoxicity was determined by Leibovitz et al. 's method utilizing crystal violeeOH and read at 562 nm (Molecular Devices). Values for cytotoxicity were expressed as EDs0 g/ml, i.e. the concentration ofthe compound inhibiting 50% ofcell growth. A value of less than 4 µg/ml was required for significant activity ofgrowth inhibition. Incorporation Studies Incorporation of labeled precursors into 3H-DNA, 3H -RNA and 3H -protein for 10 L1210 cells was obtained. The concentration response for inhibition of DNA, RNA and protein synthesis of the compounds at 25, 50 and 100 l.tM was determined for 60 min incubations. Incorporation of 14C -glycine (53.0 mCi/mmol) into purines was obtained by the method of Cadman et al.[12]. Incorporation of 4C- formate (53.0 mCi/mmol) into pyrimidines was determined by the method of Christopherson et al.[13]. Enzyme Assays Inhibition of various enzyme activities was performed by first preparing the appropriate L1210 cell homogenates or subcellular fractions, then adding the drug to be tested during the enzyme assay. For the concentration response studies, inhibition of enzyme activity was determined at 25, 50 and 100 l.tM of compounds G1-2021, G1-2029, GI-2041 and G1-2063 after 60 min incubations. DNA polymerase Ot activity was determined in cytoplasmic extracts isolated by Eichler et aL's method. The DNA polymerase assay was described by Sedwick et al.[15] using 3H-TTP. Messenger-, ribosomal- and transfer-RNA polymerase enzymes were isolated with different concentrations of ammonium sulfate; individual RNA polymerase activities were determined using 3H -UTP 16,17]. Ribonucleoside reductase activity was measured using 4C -CDP with dithioerythritol. The deoxyribonucleotides 4C -dCDP were separated from the ribonucleotides by TLC on PEI plates. […]

[3] = molecular target: T1, PRPP amido transferase (Mus musculus, UniProt Q8CIH9); assay: PRPP amidotransferase activity, L1210; type: biochemical; settings: 60 min, N=6
T1 construct: preparing the appropriate L1210 cell homogenates or subcellular fractions; endogenous in cells; host or cells: L1210 murine lymphoid leukemia cells, homogenate or subcellular fraction
T1 sequence (Q8CIH9 12-517): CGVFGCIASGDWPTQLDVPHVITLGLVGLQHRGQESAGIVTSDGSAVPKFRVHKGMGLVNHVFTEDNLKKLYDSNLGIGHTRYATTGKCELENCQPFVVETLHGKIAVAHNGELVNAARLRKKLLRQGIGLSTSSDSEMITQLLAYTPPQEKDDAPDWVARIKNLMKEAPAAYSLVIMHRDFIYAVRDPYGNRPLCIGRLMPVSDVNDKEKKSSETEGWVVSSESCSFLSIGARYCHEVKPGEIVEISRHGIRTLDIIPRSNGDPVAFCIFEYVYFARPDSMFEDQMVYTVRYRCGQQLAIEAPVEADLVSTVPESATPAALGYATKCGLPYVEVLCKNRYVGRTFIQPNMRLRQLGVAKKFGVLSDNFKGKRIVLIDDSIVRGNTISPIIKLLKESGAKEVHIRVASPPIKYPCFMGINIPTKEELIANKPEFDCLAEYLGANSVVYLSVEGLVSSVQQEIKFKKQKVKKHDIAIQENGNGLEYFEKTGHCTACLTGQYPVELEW
From the text: as §1

[4] = molecular target: T2, Dihydrofolate reductase (Mus musculus, UniProt P00375); assay: Dihydrofolate reductase activity, L1210; type: biochemical
T2 construct: preparing the appropriate L1210 cell homogenates or subcellular fractions; endogenous in cells; host or cells: L1210 murine lymphoid leukemia cells, homogenate or subcellular fraction
T2 sequence (P00375 1-187): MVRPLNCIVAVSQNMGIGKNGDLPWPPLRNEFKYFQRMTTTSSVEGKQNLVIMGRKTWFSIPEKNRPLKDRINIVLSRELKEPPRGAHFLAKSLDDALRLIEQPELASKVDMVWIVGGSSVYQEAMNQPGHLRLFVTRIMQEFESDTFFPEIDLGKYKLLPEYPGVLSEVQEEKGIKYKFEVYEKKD
From the text: as §2

[5] = system: L1210 de novo purine synthesis; assay: 14C-glycine incorporation into purines; type: cell-based, mouse; settings: 60 min, N=6
From the text: as §2

[6] = molecular target: T3, Thymidylate synthetase (Mus musculus, UniProt P07607); assay: Thymidylate synthetase activity, L1210; type: biochemical; settings: 60 min, N=6
T3 construct: preparing the appropriate L1210 cell homogenates or subcellular fractions; endogenous in cells; host or cells: L1210 murine lymphoid leukemia cells, homogenate or subcellular fraction
T3 sequence (P07607 whole entry): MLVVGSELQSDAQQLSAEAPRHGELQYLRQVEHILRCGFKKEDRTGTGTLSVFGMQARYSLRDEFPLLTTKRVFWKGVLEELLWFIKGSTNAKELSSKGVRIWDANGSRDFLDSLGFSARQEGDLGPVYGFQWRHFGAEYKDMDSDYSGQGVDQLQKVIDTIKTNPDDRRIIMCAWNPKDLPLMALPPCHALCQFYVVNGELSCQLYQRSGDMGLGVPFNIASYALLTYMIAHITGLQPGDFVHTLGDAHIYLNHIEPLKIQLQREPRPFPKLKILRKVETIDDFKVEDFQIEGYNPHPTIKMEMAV
From the text: as §2

[7] = system: Thymidine kinase; assay: Thymidine kinase activity, L1210; type: biochemical, mouse; settings: 60 min, N=6
From the text: as §2

[8] = system: tRNA polymerase; assay: Transfer-RNA polymerase activity, L1210; type: biochemical, mouse; settings: 60 min, N=6
From the text: as §2

[9] = molecular target: T4, mRNA polymerase (Mus musculus, UniProt P08775); assay: Messenger-RNA polymerase activity, L1210; type: biochemical; settings: 25 μM, 60 min, N=6
T4 construct: Messenger-, ribosomal- and transfer-RNA polymerase enzymes were isolated with different concentrations of ammonium sulfate; endogenous in cells; host or cells: L1210 murine lymphoid leukemia cells, ammonium sulfate fraction
From the text: CYTOTOXlCITY OF POLY(PHENOLIC)SULFONATES AND THEIR SODIUM SALTS IN L1210 LYMPHOID LEUKEMIA CELLS Fei Wang, Amy E. Warren, Cheryl R. Barnes and Iris H. Hall* Division of Medicinal Chemistry and Natural Products University of North Carolina Chapel Hill, N.C. […] Because ofthese properties it was surmised that these poly(phenolic)sulfonated compounds may have antineoplastic activity. METHODS Source of Compounds Test compounds were supplied by GeneLabs, Inc. [Redwood City, CA [Table 1]. Radioisotopes were obtained from New England Nuclear [Dupont, Boston, MA]. Substrates and co-factors were purchased om Sigma Chemical Co., [St Louis, MO]. Pentosan sulfate and other antineoplastic standards were obtained from Sigma Chemical Co. Tumor lines were obtained from American Type Culture Collection [Rockville, MD]. […] Cell numbers were determined by the trypan blue exclusion technique. Solid tumor cytotoxicity was determined by Leibovitz et al. 's method utilizing crystal violeeOH and read at 562 nm (Molecular Devices). Values for cytotoxicity were expressed as EDs0 g/ml, i.e. the concentration ofthe compound inhibiting 50% ofcell growth. […] Incorporation of 4C- formate (53.0 mCi/mmol) into pyrimidines was determined by the method of Christopherson et al.[13]. […] DNA polymerase Ot activity was determined in cytoplasmic extracts isolated by Eichler et aL's method. […] Messenger-, ribosomal- and transfer-RNA polymerase enzymes were isolated with different concentrations of ammonium sulfate; individual RNA polymerase activities were determined using 3H -UTP 16,17]. Ribonucleoside reductase activity was measured using 4C -CDP with dithioerythritol. […]

[10] = system: IMP dehydrogenase; assay: IMP dehydrogenase activity, L1210; type: biochemical, mouse; settings: 25 μM, 60 min, N=6
From the text: as §1

[11] = molecular target: T5, Thymidine monophosphate kinase (Mus musculus, UniProt P97930); assay: TMP kinase activity, L1210; type: biochemical; settings: 60 min, N=6
T5 construct: preparing the appropriate L1210 cell homogenates or subcellular fractions; endogenous in cells; host or cells: L1210 murine lymphoid leukemia cells, homogenate or subcellular fraction
T5 sequence (P97930 1-212): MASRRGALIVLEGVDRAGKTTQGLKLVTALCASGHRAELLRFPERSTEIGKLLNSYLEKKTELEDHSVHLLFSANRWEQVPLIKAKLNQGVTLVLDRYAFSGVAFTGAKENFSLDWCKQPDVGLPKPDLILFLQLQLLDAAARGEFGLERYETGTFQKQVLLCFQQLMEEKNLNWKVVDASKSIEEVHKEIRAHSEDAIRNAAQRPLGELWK
From the text: as §2

Compound: COc1c2cc(S(=O)(=O)[O-])cc1Cc1cc(S(=O)(=O)[O-])cc(c1OC)Cc1cc(S(=O)(=O)[O-])cc(c1OC)Cc1cc(S(=O)(=O)[O-])cc(c1OC)Cc1cc(S(=O)(=O)[O-])cc(c1OC)Cc1cc(S(=O)(=O)[O-])cc(c1OC)Cc1cc(S(=O)(=O)[O-])cc(c1OC)Cc1cc(S(=O)(=O)[O-])cc(c1OC)C2.[Na+].[Na+].[Na+].[Na+].[Na+].[Na+].[Na+].[Na+] [GI-2021]
- RNA synthesis ([1]; 25 μM): 109+6% of Control
- RNA synthesis ([1]; 50 μM): 94+6% of Control
- RNA synthesis ([1]; 100 μM): 78+4% of Control
- ED50 converted to [2]: 777 nM
- PRPP amido transferase ([3]; 25 μM): 62+5% of Control
- PRPP amido transferase ([3]; 50 μM): 61+4% of Control
- dihydrofolate reductase activity reduced ([4]; 100 μM after hr): 24%
- Dihydrofolate reductase ([4]; 100 μM, 60 min, N=6): 76+4% of Control
- Purine de novo synthesis ([5]; 25 μM): 121+6% of Control
- Purine de novo synthesis ([5]; 50 μM): 118+4% of Control
- Purine de novo synthesis ([5]; 100 μM): 74+6% of Control
- Thymidylate synthetase ([6]; 25 μM): 97+6% of Control
- Thymidylate synthetase ([6]; 50 μM): 88+5% of Control
- Thymidylate synthetase ([6]; 100 μM): 82+4% of Control
- Thymidine kinase ([7]; 25 μM): 112+7% of Control
- Thymidine kinase ([7]; 50 μM): 96+5% of Control
- Thymidine kinase ([7]; 100 μM): 76+4% of Control
- tRNA polymerase ([8]; 25 μM): 98+5% of Control
- tRNA polymerase ([8]; 50 μM): 85+5% of Control
- tRNA polymerase ([8]; 100 μM): 76+4% of Control
- mRNA polymerase [9]: 99+5% of Control
- IMP dehydrogenase [10]: 124+4% of Control
- Thymidine monophosphate kinase ([11]; 25 μM): 110+6% of Control
- Thymidine monophosphate kinase ([11]; 100 μM): 32+3% of Control

— paper PMC2365111, “Cytotoxicity of Poly(Phenolic)Sulfonates and Their Sodium Salts in L1210 Lymphoid Leukemia Cells” (Metal-Based Drugs, 1998)
